The results in this text go back to patent publication US20260159536A1, “AKR1C3-ACTIVATED DNA ALKYLATING AGENT, AND MEDICAL APPLICATION THEREOF” (ASCENTAWITS PHARMACEUTICALS, LTD., priority 2021, published 2026).

The test system of one test is H460 cells. The test can be described thus: Inhibition of H460 cancer cell proliferation (CTG, 72 h). The class given is cell-based. The settings on record: Homo sapiens, NCI-H460. The procedure: (§1) If not otherwise specified, IC50 values were measured by the following experimental methods:
c) The cell suspension was added to 96-well plate with 100 μL per well and 2000 cells/well of cell density.
(§2) a) Cells were plated for 24 hours, and then the compounds acted singly. 99 μL of growth medium was supplemented per well, and then 1 μL of 200× compound was added, gently shaken to ensure uniform mixing, and then placed in a 37° C., 5% CO2 incubator.
(§3) b) The cell plate was placed in the incubator for 72 hours.
(§4) b) 100 μL of CTG reagent (CelltiterGlo kit) was added to each well, the plate was placed in a rapid oscillator and shaken for 2 minutes, and then placed at room temperature for 30 minutes away from light.
c) The chemiluminescence signal value was read with Envision instrument.
(§5) The IC50 was calculated using GraphPad Prism 8 software and the IC50 (half inhibitory concentration) of the compounds was obtained using the following non-linear fitting formula: […]

A further test has as its system MHCC97H. Briefly: Cytotoxicity on hepatocellular carcinoma cell line MHCC97H. It is filed as cell-based. The settings on record: for IC50: Homo sapiens. The procedure: as §1, §2, §3, §4, §5
(§6) Using the same experimental methods as described above, Compounds A, B and C were further tested for cytotoxicity against different hepatocellular carcinoma (HCC) cell lines SNU354, SNU886, MHCC97H and huH-1, and the results were shown in Table 2 below: […]

A further test relates to SNU886. Briefly: Cytotoxicity on hepatocellular carcinoma cell line SNU886. The class given is cell-based. The conditions noted are these: for IC50: SNU-886. On the procedure:
as §1, §2, §3, §4, §5, §6

The test system of the next test is H460 cancer cells. Briefly: H460 proliferation in the presence or absence of AKR1C3 inhibitor AST-3021 (Alamar Blue). It is filed as cell-based, human. The conditions noted are these: for IC50: Homo sapiens, NCI-H460, H460, 2 hours exposure; for Fold: IC50 with AST-3021 over IC50 without. On the procedure:
The tested compound was then added. The compound was dissolved in 100% DMSO at 200 times of the desired final test concentration. When the medicament was added, the compound was further diluted to 4 times of the desired final test concentration by using the complete medium. 50 μL of aliquots of the compound with specific concentration were added to the microwells containing 150 μL of medium, and then the final medicament concentration was obtained. […] The medicament was then washed. […] After the incubation was finished, the Alamar Blue was used to analyze and quantify the living cells.

Another test deals with huH-1. Briefly: Cytotoxicity on hepatocellular carcinoma cell line huH-1. The class given is cell-based. The settings on record: for IC50: Homo sapiens, HuH-1. On the procedure:
as §1, §2, §3, §4, §5, §6

In a further test the test system is SNU354. The test can be described thus: Cytotoxicity on hepatocellular carcinoma cell line SNU354. The class given is cell-based. The settings on record: for IC50: Homo sapiens, SNU-354. On the procedure: as §1, §2, §3, §4, §5, §6
Where [1] appears, read: no AKR1C3 inhibitor, read-out: IC50 Without the addition of AST-3021.

Each structure is given as a SMILES string. Where two headings read alike, the source gives them in different places.

By IC50 is commonly meant the concentration that inhibits the measured activity by half. Take `O=[N+]([O-])c1ccc([C@H](OP(=O)(N2CC2)N2CC2)C(F)(F)F)cc1Oc1ccc(-c2ccc(F)cc2)c(F)c1` [B]: the IC50 was found to be 8.77 nM with H460 cells; 242 nM in the test with MHCC97H; 378 nM in the test on SNU886; 3.73 nM in the test on H460 cancer cells (setting [1]); 258 nM in the test on huH-1; 754 nM in the test with SNU354. Also, in the test on H460 cancer cells, the Fold is on record as 513.28.

On to `O=[N+]([O-])c1ccc([C@@H](OP(=O)(N2CC2)N2CC2)C(F)(F)F)cc1Oc1ccc(-c2ccc(F)cc2)c(F)c1` [C], for which the IC50 with H460 cells is 23.4 nM; with MHCC97H, 563 nM; in the test on SNU886, 843 nM; in the test on H460 cancer cells (AST-3021 3 micromolar, read-out: IC50 With the addition of AST-3021) it was 3330 nM; with H460 cancer cells (setting [1]) it was 7.66 nM; in the test on huH-1 it was 269 nM. In the test with SNU354, this compound displayed an IC50 of 1520 nM. Further, the “ratio C/B” value was 2.32 with MHCC97H (IC50 ratio); 2.23 in the test with SNU886 (IC50 ratio); 1.49 in the test on huH-1 (IC50 ratio, huH-1); 2.01 in the test on SNU354 (IC50 ratio). The compound further registered a Fold in the test with H460 cancer cells of 434.76.
